“And” between values parts separate entries of the source, which are not always exact repeats. Equal entries are not always repeated.
Experiment: xn = mol fraction of the nth substance listed
Conditions: Gas, Spherical resonator

[Ar] [argon] + O=C=O
Conditions | speed of sound
274.99 K, 4022.9 kPa, x2 = 0.501 | 263.92 m/s and 263.91 m/s
274.99 K, 4023.2 kPa, x2 = 0.501 | 263.86 m/s
274.99 K, 6072.9 kPa, x2 = 0.501 | 257.99 m/s and 257.96 m/s
274.99 K, 6073.3 kPa, x2 = 0.501 | 258.01 m/s
275 K, 2006.3 kPa, x2 = 0.501 | 270.61 m/s and 270.59 m/s
275 K, 2006.4 kPa, x2 = 0.501 | 270.44 m/s
275 K, 8215.3 kPa, x2 = 0.501 | 254.18 m/s and 254.17 m/s
275 K, 8216.3 kPa, x2 = 0.501 | 253.76 m/s
276.09 K, 501.14 kPa, x2 = 0.7498 | 264.91 m/s
276.09 K, 1998.9 kPa, x2 = 0.7498 | 255.17 m/s and 255.16 m/s
276.09 K, 1999 kPa, x2 = 0.7498 | 255.07 m/s
276.09 K, 4003.2 kPa, x2 = 0.7498 | 240.29 m/s
276.09 K, 4003.3 kPa, x2 = 0.7498 | 240.28 m/s
276.09 K, 4003.6 kPa, x2 = 0.7498 | 240.29 m/s
276.09 K, 4995.2 kPa, x2 = 0.7498 | 231.83 m/s and 231.82 m/s
276.09 K, 4995.7 kPa, x2 = 0.7498 | 232.3 m/s
276.09 K, 5295.4 kPa, x2 = 0.7498 | 229.02 m/s and 229.01 m/s
276.09 K, 5296 kPa, x2 = 0.7498 | 229.56 m/s
276.09 K, 5399.3 kPa, x2 = 0.7498 | 228 m/s
276.09 K, 5399.8 kPa, x2 = 0.7498 | 228.57 m/s
276.09 K, 5502.4 kPa, x2 = 0.7498 | 226.98 m/s
276.09 K, 5503 kPa, x2 = 0.7498 | 227.57 m/s
290.01 K, 485.29 kPa, x2 = 0.7498 | 271.44 m/s
290.01 K, 1978.9 kPa, x2 = 0.7498 | 263.38 m/s and 263.41 m/s
290.01 K, 1979 kPa, x2 = 0.7498 | 263.3 m/s
290.01 K, 4023.1 kPa, x2 = 0.7498 | 251.71 m/s and 251.65 m/s
290.01 K, 4023.4 kPa, x2 = 0.7498 | 251.64 m/s
290.01 K, 6011.9 kPa, x2 = 0.7498 | 239.66 m/s
290.01 K, 6012.1 kPa, x2 = 0.7498 | 239.67 m/s
290.01 K, 6012.7 kPa, x2 = 0.7498 | 240.25 m/s
290.01 K, 8057 kPa, x2 = 0.7498 | 227.35 m/s
290.01 K, 8057.4 kPa, x2 = 0.7498 | 227.74 m/s
290.02 K, 8057.1 kPa, x2 = 0.7498 | 227.32 m/s
299.85 K, 8170.1 kPa, x2 = 0.501 | 275.03 m/s
299.85 K, 8170.2 kPa, x2 = 0.501 | 275.04 m/s
299.85 K, 8170.7 kPa, x2 = 0.501 | 275.13 m/s
299.94 K, 1986.8 kPa, x2 = 0.501 | 283.88 m/s and 283.89 m/s
299.94 K, 1987 kPa, x2 = 0.501 | 283.79 m/s
299.94 K, 4020.8 kPa, x2 = 0.501 | 279.77 m/s
299.95 K, 494.36 kPa, x2 = 0.501 | 287.27 m/s
299.95 K, 4020.5 kPa, x2 = 0.501 | 279.84 m/s and 279.82 m/s
299.95 K, 6007.5 kPa, x2 = 0.501 | 276.82 m/s
299.95 K, 6007.9 kPa, x2 = 0.501 | 276.82 m/s
299.95 K, 7657.9 kPa, x2 = 0.501 | 275.37 m/s
299.95 K, 7658 kPa, x2 = 0.501 | 275.38 m/s
299.96 K, 7658.9 kPa, x2 = 0.501 | 275.44 m/s
310 K, 5999.6 kPa, x2 = 0.7498 | 258 m/s
310.01 K, 488.28 kPa, x2 = 0.7498 | 280.3 m/s
310.01 K, 1980.9 kPa, x2 = 0.7498 | 274.11 m/s and 274.12 m/s
310.01 K, 1981 kPa, x2 = 0.7498 | 274.01 m/s
310.01 K, 4023.9 kPa, x2 = 0.7498 | 265.68 m/s and 265.67 m/s
310.01 K, 4024.2 kPa, x2 = 0.7498 | 265.61 m/s
310.01 K, 5999.7 kPa, x2 = 0.7498 | 257.99 m/s
310.01 K, 6000.2 kPa, x2 = 0.7498 | 258.01 m/s
310.01 K, 8062.5 kPa, x2 = 0.7498 | 251.41 m/s
310.01 K, 8062.7 kPa, x2 = 0.7498 | 251.51 m/s
310.01 K, 8063.3 kPa, x2 = 0.7498 | 251.52 m/s
350.01 K, 487.4 kPa, x2 = 0.501 | 308.87 m/s
350.01 K, 500.81 kPa, x2 = 0.7498 | 296.88 m/s
350.01 K, 1987.2 kPa, x2 = 0.7498 | 293.21 m/s
350.01 K, 1987.3 kPa, x2 = 0.7498 | 293.13 m/s
350.01 K, 1987.4 kPa, x2 = 0.7498 | 293.08 m/s
350.01 K, 1989.8 kPa, x2 = 0.501 | 307.6 m/s and 307.57 m/s
350.01 K, 1990 kPa, x2 = 0.501 | 307.46 m/s
350.01 K, 4001.2 kPa, x2 = 0.501 | 306.39 m/s and 306.37 m/s
350.01 K, 4001.5 kPa, x2 = 0.501 | 306.3 m/s
350.01 K, 4010.3 kPa, x2 = 0.7498 | 288.58 m/s and 288.52 m/s
350.01 K, 4010.6 kPa, x2 = 0.7498 | 288.5 m/s
350.01 K, 6002.2 kPa, x2 = 0.501 | 305.92 m/s and 305.92 m/s
350.01 K, 6002.6 kPa, x2 = 0.501 | 305.94 m/s
350.01 K, 6017.8 kPa, x2 = 0.7498 | 284.82 m/s and 284.81 m/s
350.01 K, 6018.2 kPa, x2 = 0.7498 | 284.8 m/s
350.01 K, 7290.6 kPa, x2 = 0.501 | 306.26 m/s and 306.02 m/s
350.01 K, 7291.2 kPa, x2 = 0.501 | 306.19 m/s
350.01 K, 8200.3 kPa, x2 = 0.7498 | 282.09 m/s and 282.08 m/s
350.01 K, 8201 kPa, x2 = 0.7498 | 282.12 m/s
400.13 K, 501.93 kPa, x2 = 0.7498 | 316.14 m/s
400.13 K, 1988.1 kPa, x2 = 0.7498 | 314.38 m/s and 314.32 m/s
400.13 K, 1988.3 kPa, x2 = 0.7498 | 314.31 m/s
400.13 K, 4018.3 kPa, x2 = 0.7498 | 312.3 m/s and 312.25 m/s
400.13 K, 4018.6 kPa, x2 = 0.7498 | 312.17 m/s
400.13 K, 6013.1 kPa, x2 = 0.7498 | 310.98 m/s and 310.94 m/s
400.13 K, 6013.5 kPa, x2 = 0.7498 | 310.89 m/s
400.13 K, 7954.4 kPa, x2 = 0.7498 | 310.44 m/s
400.13 K, 7954.5 kPa, x2 = 0.7498 | 310.43 m/s
400.13 K, 7955.1 kPa, x2 = 0.7498 | 310.44 m/s
400.19 K, 2000.8 kPa, x2 = 0.501 | 328.69 m/s and 328.63 m/s
400.19 K, 2000.9 kPa, x2 = 0.501 | 328.52 m/s
400.2 K, 451.92 kPa, x2 = 0.501 | 328.79 m/s
400.2 K, 4008.7 kPa, x2 = 0.501 | 328.95 m/s and 329.02 m/s
400.2 K, 4009 kPa, x2 = 0.501 | 328.85 m/s
400.2 K, 5980.4 kPa, x2 = 0.501 | 329.82 m/s and 329.89 m/s
400.2 K, 5980.8 kPa, x2 = 0.501 | 329.73 m/s
400.2 K, 7411 kPa, x2 = 0.501 | 330.82 m/s
400.2 K, 7411.2 kPa, x2 = 0.501 | 330.79 m/s
400.2 K, 7411.7 kPa, x2 = 0.501 | 330.75 m/s
500.46 K, 1988.3 kPa, x2 = 0.501 | 365.88 m/s and 365.86 m/s
500.46 K, 1988.4 kPa, x2 = 0.501 | 365.73 m/s
500.46 K, 4007.9 kPa, x2 = 0.501 | 367.67 m/s and 367.61 m/s
500.46 K, 4008.1 kPa, x2 = 0.501 | 367.56 m/s
500.46 K, 6008.3 kPa, x2 = 0.501 | 369.75 m/s and 369.73 m/s
500.46 K, 6008.7 kPa, x2 = 0.501 | 369.69 m/s
500.46 K, 7264.4 kPa, x2 = 0.501 | 371.24 m/s and 371.28 m/s
500.46 K, 7264.8 kPa, x2 = 0.501 | 371.19 m/s
500.48 K, 501.81 kPa, x2 = 0.7498 | 351 m/s
500.48 K, 2003.9 kPa, x2 = 0.7498 | 351.19 m/s and 351.23 m/s
500.48 K, 2004 kPa, x2 = 0.7498 | 351.03 m/s
500.48 K, 4010 kPa, x2 = 0.7498 | 351.64 m/s and 351.63 m/s
500.48 K, 4010.3 kPa, x2 = 0.7498 | 351.5 m/s
500.48 K, 6000.8 kPa, x2 = 0.7498 | 352.54 m/s and 352.49 m/s
500.48 K, 6001.2 kPa, x2 = 0.7498 | 352.39 m/s
500.49 K, 8007.4 kPa, x2 = 0.7498 | 353.87 m/s
500.49 K, 8007.5 kPa, x2 = 0.7498 | 353.82 m/s
500.49 K, 8008 kPa, x2 = 0.7498 | 353.78 m/s
500.5 K, 476.59 kPa, x2 = 0.501 | 364.75 m/s

Source: the NIST ThermoML archive (doi:10.1016/j.jct.2016.03.036)
